Measurements: ChEMBL document CHEMBL1201862, “PubChem BioAssay data set” (2004)
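The compound was tested at five concentrations on cells cultured in 96-well plates, with a 48-hour exposure period. At the GI50, growth is halved.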 Calls of active or inactive are those of the source. No stated cut-off is given here; in the data, active = GI50 up to about 1.1 µM and inactive = higher.

Legend:
Assay in all cases: inhibition of tumour cell growth, NCI panel, 48 h
786-0 = tested on: 786-0
COLO 205 = tested on: COLO 205
HCC 2998 = tested on: HCC 2998
HOP-62 = tested on: HOP-62
HT-29 = tested on: HT-29
K562 = tested on: K562
MDA-MB-231 = tested on: MDA-MB-231
MDA-MB-435 = tested on: MDA-MB-435
MOLT-4 = tested on: MOLT-4
OVCAR-4 = tested on: OVCAR-4
PC-3 = tested on: PC-3
SF-539 = tested on: SF-539
SK-MEL-2 = tested on: SK-MEL-2
SNB-19 = tested on: SNB-19
SNB-75 = tested on: SNB-75
SW-620 = tested on: SW-620
Malme-3M = tested on: Malme-3M
SF-295 = tested on: SF-295
MCF7 = tested on: MCF7
T47D = tested on: T47D

Row | Compound | GI50 (786-0) | GI50 (COLO 205) | GI50 (HCC 2998) | GI50 (HOP-62) | GI50 (HT-29) | GI50 (K562) | GI50 (MDA-MB-231) | GI50 (MDA-MB-435) | GI50 (MOLT-4) | GI50 (OVCAR-4) | GI50 (PC-3) | GI50 (SF-539) | GI50 (SK-MEL-2) | GI50 (SNB-19) | GI50 (SNB-75) | GI50 (SW-620) | GI50 (Malme-3M) | GI50 (SF-295) | GI50 (MCF7) | GI50 (T47D)
1 | O=C(N/N=C1/C(=O)c2c3ccccc3cc3cccc1c23)c1cccc(Cl)c1 | 56.6 µM (inactive) | > 100 µM (inactive) | > 100 µM (inactive) | 28.9 µM (inactive) | > 100 µM (inactive) | > 100 µM (inactive) | > 100 µM (inactive) | > 100 µM (inactive) | 0.711 µM (active) | > 100 µM (inactive) | > 100 µM (inactive) | 90.2 µM (inactive) | > 100 µM (inactive) | 41.4 µM (inactive) | > 100 µM (inactive) | > 100 µM (inactive) | – | – | – | –
2 | C[n+]1c2ccccc2c(CNCC(=O)O)c2ccccc21 | 1.17 µM (inactive) | 0.418 µM (active) | 5.92 µM (inactive) | 6.27 µM (inactive) | 0.711 µM (active) | 0.504 µM (active) | – | – | 0.223 µM (active) | 12.6 µM (inactive) | – | 2.12 µM (inactive) | 2.43 µM (inactive) | 10.2 µM (inactive) | 8.41 µM (inactive) | 0.571 µM (active) | 11.9 µM (inactive) | 5.07 µM (inactive) | – | –
3 | O=C1CN(c2ccccc2)C(=O)CN1NCNN1CC(=O)N(c2ccccc2)CC1=O | > 100 µM (inactive) | > 100 µM (inactive) | > 100 µM (inactive) | > 100 µM (inactive) | > 100 µM (inactive) | – | – | > 100 µM (inactive) | > 100 µM (inactive) | > 100 µM (inactive) | > 100 µM (inactive) | > 100 µM (inactive) | – | > 100 µM (inactive) | > 100 µM (inactive) | > 100 µM (inactive) | > 100 µM (inactive) | > 100 µM (inactive) | > 100 µM (inactive) | –
4 | Cc1ccc(S(=NS(=O)(=O)c2ccc(C)cc2)c2ccc(C)cc2)cc1 | > 100 µM (inactive) | 54.7 µM (inactive) | – | > 100 µM (inactive) | > 100 µM (inactive) | 36.1 µM (inactive) | – | 60.3 µM (inactive) | > 10 µM (inactive) | – | 64 µM (inactive) | > 100 µM (inactive) | – | > 100 µM (inactive) | – | > 100 µM (inactive) | > 100 µM (inactive) | 75.7 µM (inactive) | 68.2 µM (inactive) | 56 µM (inactive)
5 | CCc1c2c([nH]c(=S)c1C#N)CCC2 | > 100 µM (inactive) | > 100 µM (inactive) | > 100 µM (inactive) | > 100 µM (inactive) | > 100 µM (inactive) | > 100 µM (inactive) | > 100 µM (inactive) | > 100 µM (inactive) | > 100 µM (inactive) | > 100 µM (inactive) | > 100 µM (inactive) | – | > 100 µM (inactive) | > 100 µM (inactive) | > 100 µM (inactive) | > 100 µM (inactive) | > 100 µM (inactive) | > 100 µM (inactive) | > 100 µM (inactive) | –
6 | O=C(CSCC(=O)N/N=C/c1ccc(F)cc1)N/N=C/c1ccc(F)cc1 | > 100 µM (inactive) | > 100 µM (inactive) | 66.8 µM (inactive) | > 100 µM (inactive) | > 100 µM (inactive) | 57.1 µM (inactive) | > 100 µM (inactive) | – | 25.2 µM (inactive) | > 100 µM (inactive) | 66.2 µM (inactive) | > 100 µM (inactive) | > 100 µM (inactive) | > 100 µM (inactive) | > 100 µM (inactive) | > 100 µM (inactive) | > 100 µM (inactive) | – | 46.6 µM (inactive) | > 100 µM (inactive)
7 | C[N+](C)(C)c1ncnc2c1ncn2C1CCCO1 (centres undefined) | > 100 µM (inactive) | > 100 µM (inactive) | > 100 µM (inactive) | > 100 µM (inactive) | > 100 µM (inactive) | > 100 µM (inactive) | – | > 100 µM (inactive) | > 100 µM (inactive) | > 100 µM (inactive) | > 100 µM (inactive) | > 100 µM (inactive) | > 100 µM (inactive) | > 100 µM (inactive) | 84.9 µM (inactive) | > 100 µM (inactive) | > 100 µM (inactive) | > 100 µM (inactive) | > 100 µM (inactive) | > 100 µM (inactive)
8 | CCOc1ccc(NC(=O)CC2C(=O)Nc3ccccc3[S+]2[O-])cc1 (centres undefined) | 49.1 µM (inactive) | > 100 µM (inactive) | > 64.7 µM (inactive) | > 100 µM (inactive) | > 100 µM (inactive) | > 100 µM (inactive) | – | – | > 100 µM (inactive) | > 57.1 µM (inactive) | – | > 67.8 µM (inactive) | > 100 µM (inactive) | 59.6 µM (inactive) | 20.1 µM (inactive) | > 76.6 µM (inactive) | 98.2 µM (inactive) | > 100 µM (inactive) | – | –
9 | CN(C)/N=N/c1ccc(S(N)(=O)=O)cc1 | > 100 µM (inactive) | > 100 µM (inactive) | > 100 µM (inactive) | > 100 µM (inactive) | > 100 µM (inactive) | > 100 µM (inactive) | – | – | > 100 µM (inactive) | > 100 µM (inactive) | – | > 100 µM (inactive) | > 100 µM (inactive) | > 100 µM (inactive) | 92.9 µM (inactive) | > 100 µM (inactive) | > 100 µM (inactive) | > 100 µM (inactive) | – | –
10 | CC(Nc1ncc2c(n1)-c1ccccc1OC2)C(=O)O (centres undefined) | > 100 µM (inactive) | 35.6 µM (inactive) | – | 51.6 µM (inactive) | 39.5 µM (inactive) | 99.8 µM (inactive) | 92.7 µM (inactive) | > 100 µM (inactive) | > 100 µM (inactive) | > 100 µM (inactive) | > 100 µM (inactive) | > 100 µM (inactive) | > 100 µM (inactive) | > 100 µM (inactive) | 40.7 µM (inactive) | > 100 µM (inactive) | > 100 µM (inactive) | > 100 µM (inactive) | 42.9 µM (inactive) | –
11 | C[Si](C)(c1ccccc1)C1CC(=O)CC(=O)C1 | 21.4 µM (inactive) | > 100 µM (inactive) | > 100 µM (inactive) | > 100 µM (inactive) | > 100 µM (inactive) | > 100 µM (inactive) | – | – | > 100 µM (inactive) | > 100 µM (inactive) | – | 19.3 µM (inactive) | > 100 µM (inactive) | > 100 µM (inactive) | > 100 µM (inactive) | > 100 µM (inactive) | > 100 µM (inactive) | > 100 µM (inactive) | – | –
12 | N#CC(C#N)=C/C=C/c1ccccc1[N+](=O)[O-] | 3.33 µM (inactive) | 3.93 µM (inactive) | > 10 µM (inactive) | > 10 µM (inactive) | 6.62 µM (inactive) | 3.21 µM (inactive) | 2.59 µM (inactive) | – | 4.54 µM (inactive) | 6 µM (inactive) | 5.06 µM (inactive) | 6.76 µM (inactive) | > 10 µM (inactive) | > 10 µM (inactive) | > 10 µM (inactive) | 4.08 µM (inactive) | 3.73 µM (inactive) | > 10 µM (inactive) | 3.95 µM (inactive) | > 10 µM (inactive)
13 | C[N+](C)(C)CC(=O)N/N=C(/C=C/c1ccccc1)CC1OC(=O)c2ccccc21 (centres undefined) | > 100 µM (inactive) | > 100 µM (inactive) | > 100 µM (inactive) | > 100 µM (inactive) | > 10 µM (inactive) | > 100 µM (inactive) | – | – | > 100 µM (inactive) | > 100 µM (inactive) | – | > 100 µM (inactive) | > 100 µM (inactive) | > 100 µM (inactive) | > 100 µM (inactive) | > 100 µM (inactive) | > 100 µM (inactive) | > 10 µM (inactive) | – | –
14 | COc1ccc(/C=c2/sc3n(c2=O)C(c2ccccc2)C2(O)CCCCC2N=3)cc1 (centres undefined) | > 12.5 µM (inactive) | – | > 12.5 µM (inactive) | > 12.5 µM (inactive) | > 12.5 µM (inactive) | > 12.5 µM (inactive) | – | > 12.5 µM (inactive) | > 12.5 µM (inactive) | > 12.5 µM (inactive) | > 12.5 µM (inactive) | – | > 12.5 µM (inactive) | > 12.5 µM (inactive) | > 12.5 µM (inactive) | > 12.5 µM (inactive) | > 12.5 µM (inactive) | – | > 12.5 µM (inactive) | > 12.5 µM (inactive)
15 | O=[N+]([O-])c1cccc(S(=O)(=O)N/N=C/c2cc(I)cc([N+](=O)[O-])c2O)c1 | 31.8 µM (inactive) | 16.5 µM (inactive) | 57 µM (inactive) | 26.7 µM (inactive) | 26.7 µM (inactive) | 29.8 µM (inactive) | – | – | 31.5 µM (inactive) | 27.9 µM (inactive) | – | 23.8 µM (inactive) | 19.7 µM (inactive) | 23.9 µM (inactive) | 22.4 µM (inactive) | 22 µM (inactive) | 25.9 µM (inactive) | 32.7 µM (inactive) | – | –
16 | O=[N+]([O-])c1ccc(C2CC(c3ccccc3Cl)=Nc3ccccc3[S+]2[O-])cc1 (centres undefined) | 1.8 µM (inactive) | 7.69 µM (inactive) | 2.92 µM (inactive) | 7.19 µM (inactive) | 2.5 µM (inactive) | 1.37 µM (inactive) | 2.29 µM (inactive) | – | 1.9 µM (inactive) | 2.31 µM (inactive) | 4.67 µM (inactive) | 7.19 µM (inactive) | 15 µM (inactive) | 3.63 µM (inactive) | 5.55 µM (inactive) | 1.98 µM (inactive) | 9.91 µM (inactive) | 5.55 µM (inactive) | 2.34 µM (inactive) | 12.8 µM (inactive)
